We go through three compounds from patent publication US20100234363A1, “HETEROCYCLIC DERIVATIVE HAVING INHIBITORY ACTIVITY ON TYPE-I 11 DATA-HYDROXYSTEROID DEHYDROGENASE” (INSTITUTE OF MEDICINAL MOLECULAR DESIGN, INC., priority 2007, published 2010).

The target of one assay is Human 11β-HSD1 (Homo sapiens, UniProt P28845). Briefly: Evaluation of compound against human 11β-HSD1 (HTRF cortisol assay). The format is biochemical. To be noted: human 11β-HSD1, cortisone 5 μM substrate, 37° C. 2 hours. On the procedure: Evaluation Method of 11β-HSD1 Inhibitor (Evaluation of Compound Against Human 11β-HSD1)
Sequence of Human 11β-HSD1 (P28845 whole entry): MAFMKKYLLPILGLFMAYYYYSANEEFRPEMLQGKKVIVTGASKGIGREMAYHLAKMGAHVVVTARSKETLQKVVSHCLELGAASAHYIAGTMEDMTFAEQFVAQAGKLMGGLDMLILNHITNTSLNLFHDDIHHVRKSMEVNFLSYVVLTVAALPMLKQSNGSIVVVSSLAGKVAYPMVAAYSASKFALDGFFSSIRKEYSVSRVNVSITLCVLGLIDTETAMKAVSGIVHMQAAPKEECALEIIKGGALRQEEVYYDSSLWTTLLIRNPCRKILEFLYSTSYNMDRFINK
(§1) After preincubating an inhibitor in a reaction solution consisting of 50 mM sodium phosphate buffer (pH 7.6), bovine serum albumin (1 mg/mL), NADPH (0.42 mg/mL), glucose-6-phosphate (1.26 mg/mL), glucose-6-phosphate dehydrogenase and an enzyme at room temperature for 30 minutes, cortisone (5 μM) which is a substrate was added (total amount 10 μL). After reacting at 37° C. for 2 hours, an XL-665-labeled cortisol solution (5 μL), and a Cryptate-labeled anti-cortisol antibody solution (5 μL) were added, a reaction was performed at room temperature for 2 hours, and fluorescence intensity (HTRF method) was measured. A cortisol concentration was calculated from a standard curve prepared using a known concentration of cortisol for each assay.
Taking a concentration of cortisol generated in the absence of the inhibitor as a control value, 50% inhibitory concentration (IC50 value) of the inhibitor against 11β-HSD1 was calculated from an inhibition curve plotting inhibition rate against the control value at each concentration of an inhibitor.
On the technique in general: In TR-FRET formats the signal depends on donor and acceptor labels being close together.

The target in a further assay is Mouse 11β-HSD 1 (Mus musculus, UniProt P50172). Briefly: Evaluation of compound against mouse 11β-HSD1 (HTRF corticosterone assay). The format is biochemical. Conditions: mouse 11β-HSD1, 11-dehydrocorticosterone 2 μM substrate, 37° C. 2 hours. On the procedure:
Evaluation Method of 11β-HSD1 Inhibitor (Evaluation of Compound Against Mouse 11β-HSD 1)
as §1, with “glucose-6-phosphate dehydrogenase,” for “glucose-6-phosphate dehydrogenase”, “minutes, 11-dehydrocorticosterone (2” for “minutes, cortisone (5”, “A corticosterone” for “A cortisol”, “of corticosterone” for “of cortisol”
Taking a concentration of corticosterone generated in the absence of the inhibitor as a control value, 50% inhibitory concentration (IC50 value) of the inhibitor against 11β-HSD1 was calculated from an inhibition curve plotting inhibition rate against the control value at each concentration of the inhibitor.

Sequence of Mouse 11β-HSD 1 (P50172 whole entry): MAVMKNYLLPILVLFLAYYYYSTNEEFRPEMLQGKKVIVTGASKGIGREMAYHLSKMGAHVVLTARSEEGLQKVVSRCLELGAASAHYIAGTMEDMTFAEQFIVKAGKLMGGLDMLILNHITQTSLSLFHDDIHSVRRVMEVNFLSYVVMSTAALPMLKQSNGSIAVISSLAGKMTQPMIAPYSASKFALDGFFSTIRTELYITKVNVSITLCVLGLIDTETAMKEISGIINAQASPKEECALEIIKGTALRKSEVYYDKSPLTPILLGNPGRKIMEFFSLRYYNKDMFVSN

The term IC50 denotes the concentration needed to halve the response being measured. For `CCN(C1=NC(=O)C2CC(C)(C)CCC2S1)N1CCCCCC1` (stereo not drawn) [Compound I-195], the IC50 against Human 11β-HSD1 is 11 nM; against Mouse 11β-HSD 1, 1640 nM.

For the compound `CN(C1=NC(=O)C2CCCCCC2S1)C(C)(C)C` (stereo not drawn) [Compound I-158], the IC50 against Human 11β-HSD1 came out at 190 nM; at Mouse 11β-HSD 1, 1490 nM.

Regarding `CCN(C1=NC(=O)C2CC(C)(C)CCC2S1)c1ccccc1C(C)(C)C` (stereo not drawn) [Compound I-175], the IC50 on Human 11β-HSD1 was 32 nM; against Mouse 11β-HSD 1, 820 nM.
